Common to all, as to experiment: relative viability (nuclei count vs DMSO), 5 days (fraction); higher = more cells survive
Compound in assay [1]: CC1=CC=C(C=C1)C(=O)CN2C3=C(CCCC3)SC2=N [Pifithrin_alpha] + Nc1nc2[nH]cc(CCc3ccc(C(=O)N[C@@H](CCC(=O)O)C(=O)O)cc3)c2c(=O)[nH]1 [Pemetrexed] (partner 0.2 µM)
Summed up: (§1)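 Lung cancer cell lines in 1536-well plates were dosed by pin tool the day after seeding, either with one drug alone or with a fixed anchor-drug dose plus five library-drug doses (not always all listed) in √10 steps. After 5 days, cells were fixed and their nuclei stained in one step (final 0.05% Triton X-100, 1% formaldehyde, 1 ug/ml Hoechst), then counted on 4× images. Relative viability is the nuclei count in treated wells divided by that in vehicle wells. Values are medians of duplicate plates.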

Compound in the assay “Bemcentinib + Crizotinib”: Nc1nc(Nc2ccc3c(c2)CC[C@@H](N2CCCC2)CC3)nn1-c1cc2c(nn1)-c1ccccc1CCC2 [Bemcentinib] + C[C@@H](Oc1cc(-c2cnn(C3CCNCC3)c2)cnc1N)c1c(Cl)ccc(F)c1Cl [Crizotinib] (partner 1 µM)
The method in brief:
as §1

Compound in assay [2]: CC1=CC=C(C=C1)C(=O)CN2C3=C(CCCC3)SC2=N [Pifithrin_alpha] + Cc1nc(Nc2ncc(C(=O)Nc3c(C)cccc3Cl)s2)cc(N2CCN(CCO)CC2)n1 [Dasatinib] (partner 0.075 µM)
The method in brief: as §1

Compound in the assay “Bemcentinib + Tozasertib”: Nc1nc(Nc2ccc3c(c2)CC[C@@H](N2CCCC2)CC3)nn1-c1cc2c(nn1)-c1ccccc1CCC2 [Bemcentinib] + Cc1cc(Nc2cc(N3CCN(C)CC3)nc(Sc3ccc(NC(=O)C4CC4)cc3)n2)n[nH]1 [Tozasertib] (partner 0.1 µM)
The method in brief: as §1

NCI-H650: the relative viability in assay [1] (first compound 3.162 µM) came out at 0.938; in assay [1] (first compound 10 µM) it was 0.967; in assay [1] (first compound 31.62 µM), 0.831; in assay [1] (first compound 100 µM) it was 0.789; with Bemcentinib + Crizotinib (first compound 0.04 µM), 0.721; in the assay with Bemcentinib + Crizotinib (first compound 0.1265 µM), 0.785. Also, the relative viability with Bemcentinib + Crizotinib (first compound 0.4 µM) worked out at 0.679; with Bemcentinib + Crizotinib (first compound 1.265 µM), 0.703; with Bemcentinib + Crizotinib (first compound 4 µM), 0.618; in assay [2] (first compound 3.162 µM) it was 0.489; in assay [2] (first compound 10 µM), 0.441; in assay [2] (first compound 31.62 µM), 0.415. The relative viability turned out to be 0.388 in assay [2] (first compound 100 µM); 0.715 in the assay with Bemcentinib + Tozasertib (first compound 0.04 µM); 0.848 in the assay with Bemcentinib + Tozasertib (first compound 0.1265 µM); 0.798 in the assay with Bemcentinib + Tozasertib (first compound 0.4 µM); 0.77 in the assay with Bemcentinib + Tozasertib (first compound 1.265 µM); 0.718 with Bemcentinib + Tozasertib (first compound 4 µM).

These data come from the supplement of paper PMC10307832.
